Assay in all cases: NCI anticancer screen, dose series, 48 h
The subject of test [1] is NCI-H522.
Test [2] concerns UO-31.
In test [3] the test system is HOP-92.
The subject of test [4] is MOLT-4.
The test system of test [5] is MDA-MB-231.
The test system of test [6] is T47D.
Test [7] concerns DU-145.
Test [8] concerns SK-OV-3.
In test [9] the test system is SW-620.
Test [10] relates to OVCAR-8.
In test [11] the test system is SK-MEL-2.
Test [12] has as its system SK-MEL-28.
Test [13] concerns NCI-H226.
Test [14] relates to NCI/ADR-RES.
The test system of test [15] is SK-MEL-5.
In test [16] the test system is SR.
Test [17] concerns HL-60.

Structures can show the parent of a compound that is named as a salt.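 Interpolation was linear, between the two tested concentrations surrounding the appropriate level; five concentrations were tested over 48 hours in 96-well plates. GI50 = concentration required for 50% inhibition of growth.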 The source made the active and inactive calls. Cut-off read from the data, not from the text of the source: active = GI50 up to about 1.1 µM and inactive = higher.

With `CC(C)[Si](OCC/C=C/C1CCC(=O)C1C(O)C1CCCCC1)(C(C)C)C(C)C` (stereo not drawn), the GI50 in test [1] was 12 µM (inactive); in [2] it was 16.6 µM (inactive); in test [3] it was 11.8 µM (inactive); in test [4], 12.5 µM (inactive); in [5] it was 18.8 µM (inactive); in test [6] it was 15 µM (inactive). In addition, the GI50 was 16.4 µM (inactive) in test [7]; 15.7 µM (inactive) in test [8]; 16 µM (inactive) in [9]; 15.2 µM (inactive) in test [10]; 12.9 µM (inactive) in [11]; 15.1 µM (inactive) in [12]. In addition, the GI50 was 16 µM (inactive) in test [13], 13.9 µM (inactive) in [14], 14.3 µM (inactive) in [15] and 4.29 µM (inactive) in test [16].

`O=C(/C=C/c1ccc([N+](=O)[O-])cc1)N1CCN(CCOC(c2ccc(F)cc2)c2ccc(F)cc2)CC1`: the GI50 was 63.5 µM (inactive) in test [1]; 14.3 µM (inactive) in test [2]; 9.68 µM (inactive) in [17]; 6.58 µM (inactive) in test [3]; 3.6 µM (inactive) in [4]; > 100 µM (inactive) in [5]. Further, the GI50 was 4.74 µM (inactive) in test [6]; 18.4 µM (inactive) in test [7]; > 100 µM (inactive) in test [8]; > 100 µM (inactive) in test [9]; 8.87 µM (inactive) in test [10]; > 100 µM (inactive) in [11]. For the same compound, the GI50 is > 100 µM (inactive) in [12]; > 100 µM (inactive) in test [13]; 4.72 µM (inactive) in [14]; 13.9 µM (inactive) in [15]; 7.21 µM (inactive) in [16].

For the compound `COc1ccc2c(c1)/C(=C(\C(Cl)=C(\Cl)N1CCCCC1)[N+](=O)[O-])N2`, the GI50 in test [1] is 39.4 µM (inactive); in test [2], > 100 µM (inactive); in test [17] it was > 100 µM (inactive); in [3], > 100 µM (inactive); in test [4], 27.2 µM (inactive); in [5], > 100 µM (inactive). For the same compound, the GI50 in [6] is > 100 µM (inactive); in test [7], > 100 µM (inactive); in test [8], > 100 µM (inactive); in test [9], 71 µM (inactive); in test [10], 87.5 µM (inactive); in test [12], > 100 µM (inactive). For the same compound, the GI50 in test [13] was 29.6 µM (inactive); in test [14], > 100 µM (inactive); in test [15], 45.9 µM (inactive); in [16], 27.1 µM (inactive).

As for `COc1cc(-c2ccccc2)cn2c1nc1ccccc12`, the GI50 in [1] is 16.5 µM (inactive); in [2] it was 14.8 µM (inactive); in [17] it was 15.6 µM (inactive); in test [3], 14.5 µM (inactive); in [4], 15.7 µM (inactive); in test [5], 21.8 µM (inactive). Further, the GI50 is 20.7 µM (inactive) in [6]; 25.6 µM (inactive) in test [7]; 23.9 µM (inactive) in [8]; 35 µM (inactive) in test [9]; 24.8 µM (inactive) in test [10]; 22.1 µM (inactive) in test [11]. The GI50 in [12] is 17 µM (inactive); in test [13], 17.5 µM (inactive); in [14], 22.8 µM (inactive); in test [15], 18.5 µM (inactive); in test [16], 29.2 µM (inactive).

For `CN(C)c1c(Cl)c(=O)oc2c1ccc1nc(-c3ccccc3)sc12`, the GI50 in test [1], in test [2], in [17], in [3], in test [4] and in [5] was > 100 µM (inactive) each time. Also, the GI50 in [6], in [7], in test [9], in test [10], in [12] and in [13] was > 100 µM (inactive) in each case. The GI50 in [14], in test [15] and in test [16] was > 100 µM (inactive) in each case.

With `Cc1cccc2c1NC(=S)[C@@H]1CCCN1C2=O`, the GI50 in test [1], in test [2], in test [3], in test [4], in [5] and in test [6] was > 100 µM (inactive) each time. Moreover, the GI50 in test [7], in [8], in test [9], in test [10], in test [11] and in test [12] was > 100 µM (inactive) throughout. Further, the GI50 in test [13], in test [14], in test [15] and in test [16] was > 100 µM (inactive) in each case.

Turning to `Cc1ccc(S(=O)(=O)NCCCSCCO)cc1`, the GI50 in [1] is > 100 µM (inactive); in [2], > 100 µM (inactive); in test [17], 26.1 µM (inactive); in test [3], 36.4 µM (inactive); in test [4], 56.5 µM (inactive); in test [5] it was 27.7 µM (inactive). The GI50 in test [6] was 21.7 µM (inactive); in test [7], > 100 µM (inactive); in test [8], > 100 µM (inactive); in test [9], 89.7 µM (inactive); in test [10], 57.8 µM (inactive); in test [12] it was > 100 µM (inactive). Further, the GI50 was 27.9 µM (inactive) in [13], > 100 µM (inactive) in test [14], 13.9 µM (inactive) in [15] and > 100 µM (inactive) in test [16].

Consider `Cc1c(C)c(S(=O)(=O)N(CCCN)OCCCN)c(C)c2c1OC(C)(C)CC2`, for which the GI50 is 14 µM (inactive) in test [1]; 17.5 µM (inactive) in [2]; 7.5 µM (inactive) in test [3]; 4.61 µM (inactive) in test [4]; 4.63 µM (inactive) in [5]; 16.9 µM (inactive) in test [6]. The GI50 is 16 µM (inactive) in test [7]; 15.4 µM (inactive) in [8]; 15.1 µM (inactive) in test [9]; 16.3 µM (inactive) in [10]; 17.5 µM (inactive) in test [11]; 15.2 µM (inactive) in test [12]. Also, the GI50 in [13] was 13.4 µM (inactive); in [14] it was 25.7 µM (inactive); in test [15], 15.6 µM (inactive); in [16] it was 17.5 µM (inactive).

Regarding `C=C(C)[C@@H]1CC[C@]2(C(=O)O)CC[C@]3(C)[C@H](CC[C@@H]4[C@@]5(C)CC(=O)C(C)(C)[C@@H]5CC[C@]43C)[C@@H]12`, the GI50 in [1] is 5.78 µM (inactive); in test [2], 7.29 µM (inactive); in test [17], 0.649 µM (active); in test [3], 11.1 µM (inactive); in test [4], 4.98 µM (inactive); in test [5], 5.65 µM (inactive). The GI50 in test [6] is 14.9 µM (inactive); in test [7] it was 12.5 µM (inactive); in test [8], 10 µM (inactive); in test [9] it was 7.23 µM (inactive); in test [10], 11.2 µM (inactive); in test [11], 4.52 µM (inactive). Moreover, the GI50 was 8.11 µM (inactive) in test [12]; 9.38 µM (inactive) in test [13]; 11.1 µM (inactive) in [14]; 5.7 µM (inactive) in test [15]; 5.13 µM (inactive) in [16].

As for `COc1cc(OC)c2c(=O)c(O)c(-c3ccc(OC)c(OC)c3)oc2c1`, the GI50 in test [1] is 4.23 µM (inactive); in test [2], 8.85 µM (inactive); in [17], 3.48 µM (inactive); in [3] it was 2.99 µM (inactive); in [4], 2.89 µM (inactive); in test [5], 5.28 µM (inactive). Also, the GI50 in test [6] was 4.97 µM (inactive); in test [7], 8.28 µM (inactive); in test [8] it was 13.6 µM (inactive); in test [9], 7.8 µM (inactive); in [10], 3.83 µM (inactive); in [12] it was > 25.2 µM (inactive). Moreover, the GI50 in test [13] is 9.4 µM (inactive); in [14], 2.86 µM (inactive); in [15], 5.96 µM (inactive); in [16], 3.33 µM (inactive).

In the case of `COc1cc(O)c2c(=O)c(O)c(-c3ccc(O)c(O)c3)oc2c1` [RHAMNETIN], the GI50 in test [1] is 3.15 µM (inactive); in test [2], 6.05 µM (inactive); in [17] it was 2.78 µM (inactive); in [3], 10.5 µM (inactive); in [4] it was 6.95 µM (inactive); in [5], 10.7 µM (inactive). The GI50 in test [6] was 19.6 µM (inactive); in test [7], 4.13 µM (inactive); in [8], 20 µM (inactive); in test [9], 10.8 µM (inactive); in test [10] it was 10.7 µM (inactive); in test [12], 6.76 µM (inactive). Besides, the GI50 in [14] is 8.55 µM (inactive); in test [15] it was 10.5 µM (inactive); in test [16], 13.3 µM (inactive).

Consider `CN(C)CCOc1ccc(/C(=C(/CCCl)c2ccccc2)c2ccccc2)cc1` [TOREMIFENE CITRATE], for which the GI50 in test [1] was 16.5 µM (inactive); in [2], 16.7 µM (inactive); in test [17], 5.13 µM (inactive); in test [3], 3.67 µM (inactive); in test [4], 18.7 µM (inactive); in test [5] it was 16.4 µM (inactive). The GI50 in [6] is 11.6 µM (inactive); in [7], 17.7 µM (inactive); in [9], 16.5 µM (inactive); in test [10], 17.7 µM (inactive); in test [11], 15.5 µM (inactive); in test [12] it was 16 µM (inactive). The GI50 in [13] was 19.1 µM (inactive); in test [14] it was 13.7 µM (inactive); in test [15], 16 µM (inactive); in [16], 3.23 µM (inactive).

Values taken from ChEMBL document CHEMBL1201862, “PubChem BioAssay data set” (2004).
